60 compounds from ChEMBL document CHEMBL1136024, “CCR3 antagonists: a potential new therapy for the treatment of asthma. Discovery and structure-activity relationships” (Bioorg Med Chem Lett, 2002) can be followed below.

The experiment concerns the target T1, C-C chemokine receptor type 3 (Homo sapiens, UniProt P51677).
T1 sequence (P51677 whole entry): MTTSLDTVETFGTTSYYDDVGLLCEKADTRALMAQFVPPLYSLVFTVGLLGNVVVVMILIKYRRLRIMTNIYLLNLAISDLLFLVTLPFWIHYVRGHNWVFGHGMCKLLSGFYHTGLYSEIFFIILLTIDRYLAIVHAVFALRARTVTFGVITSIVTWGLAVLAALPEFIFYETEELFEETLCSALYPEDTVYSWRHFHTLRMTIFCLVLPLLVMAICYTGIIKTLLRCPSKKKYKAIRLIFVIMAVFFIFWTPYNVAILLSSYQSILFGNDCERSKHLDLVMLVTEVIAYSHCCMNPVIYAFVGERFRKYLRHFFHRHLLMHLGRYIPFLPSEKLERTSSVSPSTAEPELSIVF
Put plainly: In vitro inhibition if C-C chemokine receptor type 3 (CCR3) using 150p M [125I]-labeled human eotaxin.
The IC50 is the concentration at which inhibition is half-maximal. A higher IC50 goes with a need for much substance. With `N#Cc1cccc(NC(=O)NCCN2CCC(Cc3ccccc3)CC2)c1`, the IC50 came to 0.5 µM.
The figure for `O=S(=O)(NCCCN1CC[C@@H]2[C@H](C1)c1cccc3c1N2CC3)c1ccc(F)cc1` is 10.1 µM; for `CC(=O)c1cccc(NC(=O)NCCCN2CC[C@H](Cc3ccccc3)C[C@@H]2[C@H](O)C(C)C)c1` it is 0.1 µM.
Take `O=C(NCCCN1CCC(Cc2ccc(F)cc2)CC1)Nc1cccc([N+](=O)[O-])c1`: the IC50 amounted to 0.009 µM.
In the case of `N#Cc1cccc(NC(=O)NCCCN2CCC(Cc3ccc(F)cc3)CC2)c1` it was 0.02 µM; in that of `CC[C@H](O)[C@H]1C[C@@H](Cc2ccccc2)CCN1CCCNC(=O)Nc1cccc(C(C)=O)c1` (stereo in doubt; 85), 0.006 µM; in that of `CC(=O)c1cccc(NC(=O)NCCCN2CC[C@H](Cc3ccccc3)C[C@@H]2C(C)(C)O)c1`, 0.2 µM.
`O=C(NCCCN1CCC(Cc2ccc(F)cc2)CC1)Nc1cccc(-c2ncc[nH]2)c1`: half-maximal inhibition (IC50) required 0.1 µM.
Compound `C[S+]([O-])c1ccc(NC(=O)NCCCN2CCC(Cc3ccc(F)cc3)CC2)cc1` (stereo not given) displayed an IC50 of 0.2 µM.
In the case of `CSc1ccc(NC(=O)NCCCN2CCC(Cc3ccc(F)cc3)CC2)cc1` it was 0.04 µM; in that of `N#Cc1cccc(NC(=O)NCCCN2CCC(Cc3ccccc3F)CC2)c1`, 0.2 µM; in that of `COc1cccc(NC(=O)N2CCCC(CCN3CCC(Cc4ccc(F)cc4)CC3)C2)c1` (racemic), 0.25 µM.
Compound `O=C(NCCCN1CCC(Cc2ccc(F)cc2)CC1)Nc1ccccc1` returned an IC50 of 0.03 µM.
`COc1ccccc1C(=O)NCCCCN1CC[C@@H]2[C@H](C1)c1cccc3c1N2CC3` registered an IC50 of 6.8 µM.
In the case of `CCCC[C@H](O)[C@H]1C[C@@H](Cc2ccccc2)CCN1CCCNC(=O)Nc1cccc(-c2nnnn2C)c1` it was 0.001 µM; in that of `CC(=O)c1cccc(NC(=O)NCCCN2CC[C@H](Cc3ccccc3)C[C@@H]2[C@H](O)CC(C)C)c1`, 0.06 µM; in that of `COc1cccc(NC(=O)N2CCO[C@H](CN3CCC(Cc4ccc(F)cc4)CC3)C2)c1`, 0.03 µM.
In the case of `N#Cc1cccc(NC(=O)NCCCN2CCC(Cc3ccc(Cl)cc3)CC2)c1` it was 0.02 µM; in that of `CCCC[C@H](O)[C@H]1C[C@@H](Cc2ccccc2)CCN1CCCNC(=O)Nc1cccc(C(C)=O)c1` (stereo in doubt; form 2), 0.08 µM.
Regarding `CS(=O)(=O)c1cccc(NC(=O)NCCCN2CCC(Cc3ccc(F)cc3)CC2)c1`, the IC50 is 0.02 µM.
In the case of `O=C(NCCCN1CCC(Cc2ccc(F)cc2)CC1)NCc1ccccc1` it was 0.4 µM.
In the case of `CC(=O)c1cccc(NC(=O)NCCCN2CC[C@H](Cc3ccccc3)C[C@@H]2Cc2ccccc2)c1` it was 0.2 µM; in that of `COc1cccc(NC(=O)N2CCO[C@@H](CN3CCC(Cc4ccc(F)cc4)CC3)C2)c1`, 0.26 µM; in that of `O=C(NCCCN1CCC(Cc2ccc(F)cc2)CC1)Nc1cccc(-c2ccco2)c1`, 0.1 µM.
The figure for `O=C(CCCN1CC[C@@H]2[C@H](C1)c1cccc3c1N2CC3)c1ccc(F)cc1` is 1.1 µM; for `COc1cccc(NC(=O)N2CCC(N3CCC(Cc4ccccc4)CC3)CC2)c1` it is 2.3 µM; for `O=C(NCCCN1CCC(Cc2ccc(F)cc2)CC1)Nc1ccccc1[N+](=O)[O-]` it is 0.089 µM.
Compound `O=C(NCCCCN1CC[C@@H]2[C@H](C1)c1cccc3c1N2CC3)c1ccc(F)cc1` gave an IC50 of 3.9 µM.
Turning to `COc1cccc(C(=O)NCCCCN2CC[C@@H]3[C@H](C2)c2cccc4c2N3CC4)c1`, the IC50 came out at 8.1 µM.
The figure for `N#Cc1cccc(NC(=O)NCCCN2CC[C@@H]3[C@H](C2)c2cccc4c2N3CC4)c1` is 0.7 µM; for `COc1cccc(NC(=O)N2CCC(CN3CCC(Cc4ccccc4)CC3)CC2)c1` it is 1.6 µM; for `COc1cccc(NC(=O)N2CCCC(CN3CCC(Cc4ccccc4)CC3)C2)c1` (racemic) it is 0.33 µM.
Compound `C[S+]([O-])c1cccc(NC(=O)NCCCN2CCC(Cc3ccc(F)cc3)CC2)c1` (stereo not given) showed an IC50 of 0.05 µM.
Take `O=C(NCCCN1CCC(Cc2ccc(F)cc2)CC1)Nc1cccc(C(F)(F)F)c1`: it took 0.07 µM to reach half-maximal inhibition (IC50).
The figure for `O=C(NCCCN1CC[C@@H]2[C@H](C1)c1cccc3c1N2CC3)c1ccc(F)cc1` is 5.5 µM.
In the case of `O=C(NCCCN1CCC(Cc2ccccc2)CC1)Nc1ccccc1` it was 0.4 µM.
The figure for `O=C(NCCCN1CCC(Cc2ccc(F)cc2)CC1)Nc1ccc([N+](=O)[O-])cc1` is 0.007 µM; for `CC(=O)c1cccc(NC(=O)NCCCN2CC[C@H](Cc3ccccc3)C[C@@H]2C(C)(O)O)c1` it is 0.05 µM.
For `O=C(NCCCN1CCC(Cc2ccccc2)CC1)Nc1ccc(C(F)(F)F)cc1`, half-maximal inhibition (IC50) required 1.2 µM.
The figure for `CC(=O)c1cccc(NC(=O)NCCCN2CC[C@H](Cc3ccccc3)C[C@@H]2[C@H](C)O)c1` is 0.02 µM; for `O=C(NCCCN1CCC(Cc2ccc(F)cc2)CC1)NCCc1ccccc1` it is 0.3 µM; for `Cn1nnnc1-c1cccc(NC(=O)NCCCN2CCC(Cc3ccc(F)cc3)CC2)c1` it is 0.005 µM.
The figure for `N#Cc1ccc(C(=O)NCCCCN2CCC(Cc3ccccc3)CC2)cc1` is 1.3 µM.
On to `O=C(NCCCCN1CCC(Cc2ccccc2)CC1)c1ccc(F)cc1`, for which the IC50 worked out at 1 µM.
In the case of `O=C(NCCCN1CCC(Cc2ccc(F)cc2)CC1)Nc1cccc(-c2cccs2)c1` it was 0.2 µM; in that of `CC[C@H](O)[C@H]1C[C@@H](Cc2ccccc2)CCN1CCCNC(=O)Nc1cccc(C(C)=O)c1` (stereo in doubt), 0.008 µM; in that of `CC[C@@H](O)[C@H]1C[C@@H](Cc2ccccc2)CCN1CCCNC(=O)Nc1cccc(C(C)=O)c1`, 0.05 µM.
The figure for `CCCC[C@H](O)[C@H]1C[C@@H](Cc2ccc(F)cc2)CCN1CCCNC(=O)Nc1cccc(C(C)=O)c1` is 0.005 µM; for `O=S(=O)(NCCCCN1CC[C@@H]2[C@H](C1)c1cccc3c1N2CC3)c1ccc(F)cc1` it is 6.4 µM.
In the case of `CC(=O)c1cccc(NC(=O)NCCCN2CC[C@H](Cc3ccccc3)C[C@@H]2[C@@H](O)CC(C)C)c1` it was 0.02 µM.
The compound `CC(=O)c1cccc(NC(=O)NCCCN2CC[C@H](Cc3ccccc3)C[C@@H]2[C@@H](O)C(C)C)c1` yielded an IC50 of 0.05 µM.
The figure for `CCC[C@H]1C[C@@H](Cc2ccccc2)CCN1CCCNC(=O)Nc1cccc(C(C)=O)c1` (stereo in doubt; 79) is 0.1 µM.
`Cc1ccc(CC2CCN(CCCNC(=O)Nc3cccc(C#N)c3)CC2)cc1` showed an IC50 of 0.5 µM.
The figure for `O=C(NCCN1CC[C@@H]2[C@H](C1)c1cccc3c1N2CC3)c1ccc(F)cc1` is 8.3 µM; for `CN(C)c1ccc(NC(=O)NCCCN2CCC(Cc3ccccc3)CC2)cc1` it is 1.6 µM; for `COc1cccc(NC(=O)N2CCCC(N3CCC(Cc4ccc(F)cc4)CC3)C2)c1` (racemic) it is 0.53 µM.
In the case of `CCC[C@H](O)[C@H]1C[C@@H](Cc2ccccc2)CCN1CCCNC(=O)Nc1cccc(C(C)=O)c1` it was 0.007 µM; in that of `N#Cc1cccc(NC(=O)NCCCCN2CCC(Cc3ccccc3)CC2)c1`, 0.5 µM.
In the case of `COc1cccc(NC(=O)N2CCC(CN3CCC(Cc4ccc(F)cc4)CC3)C2)c1` (racemic) it was 0.24 µM; in that of `CSc1cccc(NC(=O)NCCCN2CCC(Cc3ccc(F)cc3)CC2)c1`, 0.02 µM.
